In BigSolDB 2.1:

COc1cc(/C=C/C(=O)O)cc(OC)c1O
solubility (mole fraction)
Conditions | in DMSO | in ethanol | in ethyl acetate | in ethylene glycol | in isopropanol | in n-butanol | in propylene glycol | in sec-butanol | in transcutol | in water
298.15 K | 0.148 | 0.012 | 0.00532 | 0.0059 | 0.00213 | 0.00355 | 0.00452 | 0.00409 | 0.0298 | 6.22e-05
303.15 K | 0.15 | 0.013 | 0.00627 | 0.00663 | 0.00222 | 0.00429 | 0.0053 | 0.00486 | 0.0324 | 8.11e-05
308.15 K | 0.153 | 0.0141 | 0.00764 | 0.00748 | 0.00234 | 0.00529 | 0.00607 | 0.00559 | 0.0353 | 0.000113
313.15 K | 0.156 | 0.0152 | 0.00935 | 0.00843 | 0.00245 | 0.00631 | 0.00708 | 0.00663 | 0.0383 | 0.000146
318.15 K | 0.159 | 0.0164 | 0.0109 | 0.00934 | 0.00257 | 0.00729 | 0.00811 | 0.00761 | 0.0412 | 0.000188

Conditions | solubility (mole fraction)
in PEG-400, 298.15 K | 0.0558
in PEG-400, 303.15 K | 0.0616
in PEG-400, 308.15 K | 0.0681
in PEG-400, 313.15 K | 0.0748
in PEG-400, 318.15 K | 0.0834
